Values of other authors in publication PMC4806784 (Investigational new drugs, 2015).
Where two headings read alike, the source gives them in different places.

Conditions: 60 mg/m^2 q 3 week, cited from earlier work
[1] = chemotherapy-naïve elderly patients with advanced non-small cell lung cancer, ref a more recent trial
[2] = metastatic breast cancer, second line

CC(=O)O[C@@]12CO[C@@H]1C[C@H](O)[C@@]1(C)C(=O)[C@H](O)C3=C(C)[C@@H](OC(=O)[C@H](O)[C@@H](NC(=O)OC(C)(C)C)c4ccccc4)C[C@@](O)([C@@H](OC(=O)c4ccccc4)[C@H]21)C3(C)C [docetaxel]
incidence of Grade 3 to 4 neutropenia [1]: 89%
incidence of febrile neutropenia [1]: 15%
incidence of Grade 3 to 4 neutropenia [2]: 76%
incidence of febrile neutropenia [2]: 5%
